Legend:
[1] = target: Prostaglandin E2 receptor EP4 subtype (Homo sapiens, UniProt P35408); experiment: Effective concentration required for prostanoid EP4 receptor activity was determined; assay type: functional
[2] = Binding affinity for prostanoid EP3 receptor
[3] = Binding affinity for prostanoid EP4 receptor
[4] = Binding affinity for prostanoid EP2 receptor
[5] = Binding affinity for Prostanoid EP2 receptor

Prostaglandin E2 receptor EP4 subtype, sequence (P35408 whole entry): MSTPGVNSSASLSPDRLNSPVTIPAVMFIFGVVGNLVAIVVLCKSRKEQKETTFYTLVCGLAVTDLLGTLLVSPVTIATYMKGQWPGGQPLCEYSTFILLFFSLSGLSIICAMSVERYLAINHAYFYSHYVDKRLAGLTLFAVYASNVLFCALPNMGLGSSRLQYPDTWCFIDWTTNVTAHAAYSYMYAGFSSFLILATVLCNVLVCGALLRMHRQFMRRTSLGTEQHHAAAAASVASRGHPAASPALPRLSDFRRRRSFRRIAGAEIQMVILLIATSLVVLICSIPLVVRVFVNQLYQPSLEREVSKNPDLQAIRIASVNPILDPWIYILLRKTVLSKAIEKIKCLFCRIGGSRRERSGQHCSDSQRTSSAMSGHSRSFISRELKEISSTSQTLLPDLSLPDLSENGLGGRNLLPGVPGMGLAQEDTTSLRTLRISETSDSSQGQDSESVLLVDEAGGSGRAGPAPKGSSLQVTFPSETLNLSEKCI

SMILES | EC50 [1] [nM] | Ki [2] [nM] | Ki [3] [nM] | Ki [4] [nM] | Ki [5] [nM]
COCc1cccc(C[C@H](O)/C=C/[C@H]2CCCC(=O)N2CCSCCCC(=O)O)c1 | 44 | > 10000 | 22 | > 10000 | 
Cc1cc(O)ccc1-c1cccc([C@@H](O)CC[C@H]2CCCC(=O)N2CCCCCCC(=O)O)c1 | 110 | > 10000 | 25 | > 10000 | 
COCc1cccc(C[C@H](O)/C=C/[C@H]2CCCC(=O)N2CCCCCCC(=O)O)c1 | 44 |  | 8.7 | > 10000 | 
Cc1cc(Cl)ccc1-c1cccc([C@H](O)CC[C@H]2CCCC(=O)N2CCSCCCC(=O)O)c1 | 6.1 | > 10000 | 4.8 | 1600 | 
O=C(O)CCCSCCN1C(=O)CCC[C@@H]1/C=C/[C@@H](O)CCC1CC1 | 190 | > 10000 | 21 |  | > 10000
Cc1cc(O)ccc1-c1cccc(C(=O)CC[C@H]2CCCC(=O)N2CCCCCCC(=O)O)c1 | 21000 |  |  |  | 
CC(C)c1cc(C[C@H](O)/C=C/[C@H]2CCCC(=O)N2CCCCCCC(=O)O)ccc1O | 1730 |  | 130 | > 10000 | 
O=C(O)CCCSCCN1C(=O)CCC[C@@H]1CC[C@@H](O)c1ccc(C(F)(F)F)o1 | 630 | > 10000 | 105 | > 10000 | 
CCCCC(C)(C)C(O)/C=C/[C@H]1CCCC(=O)N1CCSCCCC(=O)O (some centres not stated) | 290 |  | 86 | > 10000 | 
O=C(O)CCCSCCN1C(=O)CCC[C@@H]1/C=C/[C@@H](O)CCC1CCC1 | 34 | > 10000 | 7.3 | 3800 | 
Cc1cc(C[C@H](O)/C=C/[C@H]2CCCC(=O)N2CCCCCCC(=O)O)ccc1O | 280 | > 10000 | 7.4 | > 10000 | 
O=C(O)CCCSCCN1C(=O)CCC[C@@H]1/C=C/C(O)C1(c2ccccc2)CC1 (some centres not stated) | 260 | > 10000 | 17 | > 10000 | 

Reference: ChEMBL document CHEMBL1145246, “Lactams as prostanoid receptor ligands. Part 4: 2-Piperidones as selective EP4 receptor agonists” (Bioorg Med Chem Lett, 2005)
